In ChEMBL document CHEMBL3507680, “University of Dundee, Gates Library screen for HepG2 cell viability”:

Experiment: Human HepG2 cell viability assay in 384 well format
Format: toxicity, cell-based
Set-up: dose 125 nL, time 70.5 hour; concentration not given beside the values
Settings: HepG2 cells, read-out: Inhibition

Compared with O=C(c1cc[nH]n1)N(Cc1ccccc1)CC1CCC1, COc1cccc(S(=O)(=O)CCN2CCCC2c2ccc[nH]2)c1 (stereo not given) is lower in cytotoxicity at 70.5 h: -9.65% for the first, -16.8% for the second.

Going from CCC(C)N(Cc1cccnc1)Cc1ccc2c(c1)OCCO2 (stereo not given) to CCc1cc(NCCNc2cccnc2)n2nccc2n1, the cytotoxicity at 70.5 h falls from 3.73% to -7.64%.

Compared with CC(C)c1nc(-c2cc(C(=O)O)c3ccccn23)cs1, CC(C)N1C[C@H](NC(=O)c2coc(COc3cccc(F)c3)n2)[C@@H](O)C1 is lower in cytotoxicity at 70.5 h: 10.6% for the first, 2.02% for the second.

Going from COCC(=O)N1CCn2c(COc3cccnc3)cnc2C1C (stereo not given) to CN(C)CC1(O)CCN(C(=O)c2cnc(-c3cccnc3)nc2)C1 (stereo not given), the cytotoxicity at 70.5 h falls from 6.09% to 3.5%.

Going from Cc1nc(C)c(C)c(NCCSc2ccccn2)n1 to Cc1nc(CN2CCCC(NCc3nc4ccccc4s3)C2)no1 (stereo not given), the cytotoxicity at 70.5 h falls from -6.54% to -17.4%.

First: CCCc1nc(C)c(C(=O)NC2CCN(C3CC3)C2)s1 (stereo not given)
Second: COc1ccc(OC2CCN(C(=O)c3cnc(C)s3)CC2)cc1
The cytotoxicity at 70.5 h of the first is higher: 14.1% for the first, -4.93% for the second.

Compared with CN(C)C(=O)N1CCC2(C1)CN(c1cccnc1)C(=O)CN2C (stereo not given), Cn1c2c(c(=O)n1C)CN(C(=O)c1ccncc1F)CCC2 is higher in cytotoxicity at 70.5 h: -7.38% for the first, 5.23% for the second.

Going from Cc1ccc(-n2c(SCC(=O)O)nnc2-c2ccccc2)cc1 to COc1ccc(Cc2c(O)nc(SC)n(-c3ccccc3)c2=O)cc1, the cytotoxicity at 70.5 h rises from -7.44% to 12.6%.

Going from CCS(=O)(=O)N1CCCC(Cc2cnccn2)C1 (stereo not given) to CCn1ncc2c1C(COCC1CC1)CN(C(=O)c1ccncn1)C2 (stereo not given), the cytotoxicity at 70.5 h falls from -6.07% to -10.2%.

First: O=c1c(NCCc2ccc(O)cc2)c(NCc2ccco2)c1=O
Second: Cn1nnc2cc(C(=O)NS(=O)(=O)Cc3ccc(F)cc3)ccc21
The cytotoxicity at 70.5 h of the first is higher: -4.28% for the first, -12.6% for the second.

Compared with Cc1c(CN2C[C@@H](O)[C@H](Oc3cccc(F)c3)C2)cnn1C, Cc1nc(C2CCCN(C(=O)CCCOc3cccc(F)c3)C2)no1 (stereo not given) is lower in cytotoxicity at 70.5 h: -10.7% for the first, -16.6% for the second.

Going from O=C1O[C@@H]2CN(Cc3cc4ccccc4s3)C[C@@H]2N1Cc1ccccn1 to CN1CCN(C(=O)c2ccccc2)CC(Cc2cc(N(C)C)ncn2)C1 (stereo not given), the cytotoxicity at 70.5 h rises from -6.44% to -3.72%.

Going from O=C(COCC(F)(F)F)N1CCCC(n2cccn2)C1 (stereo not given) to Cc1cc(C)n(C2CCCN(C(=O)c3cnc4onc(C)c4c3)C2)n1 (stereo not given), the cytotoxicity at 70.5 h rises from -8.85% to -7.95%.

Going from O=C1CC(N(C(=O)COc2ccc(F)cc2F)C2CC2)C(=O)N1 (stereo not given) to CCOc1cc(Cl)ccc1CNC(=O)c1ccc(=O)n(C)c1, the cytotoxicity at 70.5 h rises from -6.63% to 11.4%.

Compared with Cc1cc(CN2CCN(CC(O)c3ccc4c(c3)OCO4)CC2)no1 (stereo not given), Cc1cc(C)n(CC2CN(Cc3nc(-c4ccoc4)no3)CCO2)n1 (stereo not given) is lower in cytotoxicity at 70.5 h: -10.8% for the first, -15.7% for the second.

First: CN(CCc1cn[nH]c1)C(=O)C1CC(=O)N(Cc2cccnc2)C1 (stereo not given)
Second: O=C(c1ccnnc1)N1CCO[C@H]2[C@@H](OCc3cccnc3)CC[C@@H]21
The cytotoxicity at 70.5 h of the first is higher: 34.9% for the first, -6.56% for the second.

Compared with CN(C)C1CCC2(CCN(Cc3cccnc3)CC2)c2ccccc21 (stereo not given), O=C1C(NCc2nnc3n2CCCC3)CCN1c1ccccc1F (stereo not given) is lower in cytotoxicity at 70.5 h: -3.39% for the first, -20.6% for the second.

Compared with c1nc(N2CCCC2Cn2cncn2)c2sccc2n1 (stereo not given), O=C(CCc1nccs1)N1CCN(c2ncccn2)CC1 is higher in cytotoxicity at 70.5 h: -4.84% for the first, -1.61% for the second.

Compared with Cc1ccc(NC2CCN(C(=O)c3ccsc3)CC2)nn1, FC(F)(F)c1ccc(-c2cc(NC3CCNCC3)nc3[nH]ccc23)nc1 is lower in cytotoxicity at 70.5 h: -3.84% for the first, -7.67% for the second.

Compared with CCc1nc(CN(C)C2CCN(CCNS(=O)(=O)CC)C2)no1 (stereo not given), O=C(Cc1ccccc1F)NCC1CCN(CCN2CCOCC2)C1 (stereo not given) is lower in cytotoxicity at 70.5 h: 46.2% for the first, 2.01% for the second.

First: O=C(CNc1cc(F)ccc1OC(F)F)NCC(F)(F)F
Second: C[S+]([O-])CCCNCc1cc(F)ccc1Br (stereo not given)
The cytotoxicity at 70.5 h of the first is higher: 2.53% for the first, 0.821% for the second.

Compared with c1cc(CN2CCCn3cnc(COCC4CC4)c3C2)co1, Cn1cccc1C(=O)N1CC[C@H]2[C@H]1CCN2CC1CCOCC1 is higher in cytotoxicity at 70.5 h: -8.86% for the first, -0.0713% for the second.

Work on COC(=O)C(C)(C)NC(=O)C1CC(=O)N(C2CC2)C1 (stereo not given) yielded a cytotoxicity at 70.5 h of -6.5%.
